Measurements from ChEMBL document CHEMBL5442219.

Key:
Details in all cases: Compound concentration 10 µM
[1] = target: T1, Alpha-1A adrenergic receptor (Homo sapiens) (UniProt P35348)
T1 sequence (whole entry): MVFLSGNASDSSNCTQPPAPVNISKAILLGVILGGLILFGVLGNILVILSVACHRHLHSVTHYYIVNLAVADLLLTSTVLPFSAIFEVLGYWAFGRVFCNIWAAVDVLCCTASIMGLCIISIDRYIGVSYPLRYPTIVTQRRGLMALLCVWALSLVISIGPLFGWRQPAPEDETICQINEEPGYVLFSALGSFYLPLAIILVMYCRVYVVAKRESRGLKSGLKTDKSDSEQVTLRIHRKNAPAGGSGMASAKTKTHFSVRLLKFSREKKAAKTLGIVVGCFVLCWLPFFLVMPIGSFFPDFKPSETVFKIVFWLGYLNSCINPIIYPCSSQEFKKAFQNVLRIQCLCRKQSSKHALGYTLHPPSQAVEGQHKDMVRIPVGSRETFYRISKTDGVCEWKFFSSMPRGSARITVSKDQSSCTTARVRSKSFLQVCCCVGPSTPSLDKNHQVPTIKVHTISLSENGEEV

[2] = target: T2, Alpha-2A adrenergic receptor (Homo sapiens) (UniProt P08913)
T2 sequence (whole entry): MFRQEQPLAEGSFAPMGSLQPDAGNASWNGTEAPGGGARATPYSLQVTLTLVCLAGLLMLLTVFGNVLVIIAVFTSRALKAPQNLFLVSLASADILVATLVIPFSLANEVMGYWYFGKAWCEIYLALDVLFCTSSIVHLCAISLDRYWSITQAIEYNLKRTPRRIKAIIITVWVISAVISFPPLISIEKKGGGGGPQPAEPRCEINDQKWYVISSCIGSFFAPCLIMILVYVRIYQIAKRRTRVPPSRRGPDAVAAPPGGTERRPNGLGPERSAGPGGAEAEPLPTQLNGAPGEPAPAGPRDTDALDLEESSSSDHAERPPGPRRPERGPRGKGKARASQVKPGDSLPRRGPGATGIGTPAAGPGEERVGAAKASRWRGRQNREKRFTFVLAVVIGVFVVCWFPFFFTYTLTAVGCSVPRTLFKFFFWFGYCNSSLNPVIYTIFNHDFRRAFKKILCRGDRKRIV

[3] = target: Beta-2 adrenergic receptor (Homo sapiens) (UniProt P07550)
[4] = target: D(2) dopamine receptor (Homo sapiens) (UniProt P14416)
D(2) dopamine receptor (Homo sapiens), sequence (P14416 whole entry): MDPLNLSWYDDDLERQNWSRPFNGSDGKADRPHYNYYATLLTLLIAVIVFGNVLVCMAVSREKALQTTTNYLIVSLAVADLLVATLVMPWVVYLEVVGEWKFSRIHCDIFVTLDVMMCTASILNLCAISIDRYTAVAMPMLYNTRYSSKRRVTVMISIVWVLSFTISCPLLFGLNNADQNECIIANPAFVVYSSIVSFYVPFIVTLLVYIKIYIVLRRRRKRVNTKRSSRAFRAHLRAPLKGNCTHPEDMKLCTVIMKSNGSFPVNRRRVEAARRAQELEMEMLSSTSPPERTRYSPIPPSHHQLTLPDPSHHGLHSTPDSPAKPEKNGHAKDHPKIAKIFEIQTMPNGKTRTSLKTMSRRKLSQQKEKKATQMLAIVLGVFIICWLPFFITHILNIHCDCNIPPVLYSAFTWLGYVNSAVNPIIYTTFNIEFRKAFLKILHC

[5] = target: D(1B) dopamine receptor (Homo sapiens) (UniProt P21918)
D(1B) dopamine receptor (Homo sapiens), sequence (P21918 whole entry): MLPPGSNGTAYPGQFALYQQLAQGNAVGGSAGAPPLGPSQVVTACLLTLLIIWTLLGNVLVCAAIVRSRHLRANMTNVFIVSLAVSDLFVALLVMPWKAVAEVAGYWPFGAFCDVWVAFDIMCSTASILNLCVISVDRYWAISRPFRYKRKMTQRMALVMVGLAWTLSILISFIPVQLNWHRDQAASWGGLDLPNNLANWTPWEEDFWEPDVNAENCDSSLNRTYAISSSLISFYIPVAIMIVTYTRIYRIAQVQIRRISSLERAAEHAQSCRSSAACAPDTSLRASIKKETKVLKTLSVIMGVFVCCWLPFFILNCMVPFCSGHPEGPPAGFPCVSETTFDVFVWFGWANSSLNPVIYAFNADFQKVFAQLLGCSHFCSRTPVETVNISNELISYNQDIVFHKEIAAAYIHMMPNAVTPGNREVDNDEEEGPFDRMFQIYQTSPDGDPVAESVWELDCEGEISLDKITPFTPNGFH

[6] = target: Histamine H4 receptor (Homo sapiens) (UniProt Q9H3N8)
Histamine H4 receptor (Homo sapiens), sequence (Q9H3N8 whole entry): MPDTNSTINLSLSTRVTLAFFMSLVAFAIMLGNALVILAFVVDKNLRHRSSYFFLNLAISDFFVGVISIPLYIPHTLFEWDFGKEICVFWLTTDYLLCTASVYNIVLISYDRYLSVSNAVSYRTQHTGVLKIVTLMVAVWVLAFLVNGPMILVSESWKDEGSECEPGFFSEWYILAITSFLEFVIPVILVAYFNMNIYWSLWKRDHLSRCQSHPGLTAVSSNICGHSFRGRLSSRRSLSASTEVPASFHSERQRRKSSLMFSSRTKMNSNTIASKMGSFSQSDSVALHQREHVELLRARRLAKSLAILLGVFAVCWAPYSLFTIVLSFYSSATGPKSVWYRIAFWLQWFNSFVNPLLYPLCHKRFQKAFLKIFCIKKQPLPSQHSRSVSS

[7] = target: 5-hydroxytryptamine receptor 1B (Homo sapiens) (UniProt P28222)
5-hydroxytryptamine receptor 1B (Homo sapiens), sequence (P28222 whole entry): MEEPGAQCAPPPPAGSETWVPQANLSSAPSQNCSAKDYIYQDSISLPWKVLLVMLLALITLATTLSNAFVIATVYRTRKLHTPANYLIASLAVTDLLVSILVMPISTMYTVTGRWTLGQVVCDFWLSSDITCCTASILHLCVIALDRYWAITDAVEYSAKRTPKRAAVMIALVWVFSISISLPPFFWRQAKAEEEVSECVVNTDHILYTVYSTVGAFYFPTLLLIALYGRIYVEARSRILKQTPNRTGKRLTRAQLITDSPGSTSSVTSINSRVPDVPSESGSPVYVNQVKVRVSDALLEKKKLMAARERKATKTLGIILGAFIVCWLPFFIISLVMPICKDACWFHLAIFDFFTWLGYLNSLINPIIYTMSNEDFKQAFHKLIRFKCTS

[8] = target: 5-hydroxytryptamine receptor 1D (Homo sapiens) (UniProt P28221)
[9] = target: 5-hydroxytryptamine receptor 6 (Homo sapiens) (UniProt P50406)
[10] = target: 5-hydroxytryptamine receptor 7 (Homo sapiens) (UniProt P34969)
[11] = target: Delta-type opioid receptor (Homo sapiens) (UniProt P41143)
[12] = target: Sigma intracellular receptor 2 (Homo sapiens) (UniProt Q5BJF2)
Sigma intracellular receptor 2 (Homo sapiens), sequence (Q5BJF2 whole entry): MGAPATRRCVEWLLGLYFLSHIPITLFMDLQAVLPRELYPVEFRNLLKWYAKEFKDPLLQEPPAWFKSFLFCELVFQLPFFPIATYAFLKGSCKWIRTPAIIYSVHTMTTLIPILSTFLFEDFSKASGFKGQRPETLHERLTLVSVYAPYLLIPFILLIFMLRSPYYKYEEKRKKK

[13] = target: 5-hydroxytryptamine receptor 1E (Homo sapiens) (UniProt P28566)
5-hydroxytryptamine receptor 1E (Homo sapiens), sequence (P28566 whole entry): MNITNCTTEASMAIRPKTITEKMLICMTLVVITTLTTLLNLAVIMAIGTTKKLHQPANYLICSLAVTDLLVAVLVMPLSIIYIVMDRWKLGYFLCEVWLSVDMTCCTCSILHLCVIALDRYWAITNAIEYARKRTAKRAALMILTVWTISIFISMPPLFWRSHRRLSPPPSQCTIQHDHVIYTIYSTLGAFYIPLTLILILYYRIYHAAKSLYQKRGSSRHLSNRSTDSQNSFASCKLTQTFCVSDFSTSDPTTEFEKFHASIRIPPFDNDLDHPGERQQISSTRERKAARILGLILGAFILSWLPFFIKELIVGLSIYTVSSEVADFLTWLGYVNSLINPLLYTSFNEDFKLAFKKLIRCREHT

[14] = target: 5-hydroxytryptamine receptor 5A (Homo sapiens) (UniProt P47898)
5-hydroxytryptamine receptor 5A (Homo sapiens), sequence (P47898 whole entry): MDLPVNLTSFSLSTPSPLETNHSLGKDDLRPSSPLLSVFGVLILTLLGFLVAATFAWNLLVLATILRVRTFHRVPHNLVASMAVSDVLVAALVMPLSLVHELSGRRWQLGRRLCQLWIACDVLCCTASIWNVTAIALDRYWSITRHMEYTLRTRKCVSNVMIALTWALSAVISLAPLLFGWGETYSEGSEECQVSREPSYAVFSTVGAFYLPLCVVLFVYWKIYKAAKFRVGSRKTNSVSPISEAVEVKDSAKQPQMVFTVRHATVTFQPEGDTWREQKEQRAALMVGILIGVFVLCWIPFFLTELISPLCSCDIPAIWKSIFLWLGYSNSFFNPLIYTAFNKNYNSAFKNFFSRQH

[15] = target: T3, Muscarinic acetylcholine receptor M1 (Homo sapiens) (UniProt P11229)
T3 sequence (whole entry): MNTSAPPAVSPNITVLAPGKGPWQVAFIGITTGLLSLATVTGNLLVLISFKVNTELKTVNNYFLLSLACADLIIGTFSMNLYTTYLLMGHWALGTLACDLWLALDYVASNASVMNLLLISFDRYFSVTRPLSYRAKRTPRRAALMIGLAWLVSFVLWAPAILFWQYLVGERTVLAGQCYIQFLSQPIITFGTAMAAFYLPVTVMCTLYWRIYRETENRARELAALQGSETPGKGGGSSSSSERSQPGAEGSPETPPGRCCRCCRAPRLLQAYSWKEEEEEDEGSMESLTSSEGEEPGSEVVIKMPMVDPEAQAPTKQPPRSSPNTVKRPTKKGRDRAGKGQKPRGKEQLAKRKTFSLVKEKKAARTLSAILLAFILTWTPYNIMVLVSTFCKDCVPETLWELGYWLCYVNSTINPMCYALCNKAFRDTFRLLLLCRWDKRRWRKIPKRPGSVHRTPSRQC

[16] = target: Muscarinic acetylcholine receptor M3 (Homo sapiens) (UniProt P20309)
Muscarinic acetylcholine receptor M3 (Homo sapiens), sequence (P20309 whole entry, looked up): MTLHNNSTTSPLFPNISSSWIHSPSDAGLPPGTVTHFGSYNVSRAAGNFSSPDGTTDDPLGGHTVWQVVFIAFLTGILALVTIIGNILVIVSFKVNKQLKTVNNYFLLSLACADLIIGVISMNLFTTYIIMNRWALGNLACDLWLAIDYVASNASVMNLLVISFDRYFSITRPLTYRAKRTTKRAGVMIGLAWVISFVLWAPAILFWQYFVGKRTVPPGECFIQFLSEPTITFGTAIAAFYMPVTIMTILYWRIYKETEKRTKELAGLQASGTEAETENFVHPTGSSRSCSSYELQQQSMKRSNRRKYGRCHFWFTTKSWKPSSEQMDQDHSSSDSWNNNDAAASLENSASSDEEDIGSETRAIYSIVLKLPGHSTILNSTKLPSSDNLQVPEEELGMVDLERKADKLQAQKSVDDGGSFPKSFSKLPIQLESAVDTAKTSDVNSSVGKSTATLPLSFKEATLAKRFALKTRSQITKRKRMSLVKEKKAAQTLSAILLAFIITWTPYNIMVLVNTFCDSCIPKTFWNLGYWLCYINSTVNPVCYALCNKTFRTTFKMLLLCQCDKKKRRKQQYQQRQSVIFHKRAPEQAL

[17] = target: D(1A) dopamine receptor (Homo sapiens) (UniProt P21728)
[18] = target: Histamine H1 receptor (Homo sapiens) (UniProt P35367)
Histamine H1 receptor (Homo sapiens), sequence (P35367 whole entry): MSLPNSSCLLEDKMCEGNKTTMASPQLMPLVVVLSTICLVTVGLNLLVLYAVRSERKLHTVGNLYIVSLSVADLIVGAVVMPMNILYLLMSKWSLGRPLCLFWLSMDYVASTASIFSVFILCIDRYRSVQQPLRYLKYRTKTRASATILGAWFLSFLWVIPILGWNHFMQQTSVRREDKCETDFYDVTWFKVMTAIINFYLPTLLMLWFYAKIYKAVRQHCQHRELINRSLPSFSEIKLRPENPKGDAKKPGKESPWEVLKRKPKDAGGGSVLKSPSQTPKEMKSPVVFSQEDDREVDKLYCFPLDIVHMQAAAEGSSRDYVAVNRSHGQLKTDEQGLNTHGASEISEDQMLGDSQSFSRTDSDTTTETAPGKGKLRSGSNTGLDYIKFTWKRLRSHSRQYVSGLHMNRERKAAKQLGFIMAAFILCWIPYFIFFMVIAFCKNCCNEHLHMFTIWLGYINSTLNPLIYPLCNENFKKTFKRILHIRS

[19] = target: Histamine H3 receptor (Homo sapiens) (UniProt Q9Y5N1)
Histamine H3 receptor (Homo sapiens), sequence (Q9Y5N1 whole entry): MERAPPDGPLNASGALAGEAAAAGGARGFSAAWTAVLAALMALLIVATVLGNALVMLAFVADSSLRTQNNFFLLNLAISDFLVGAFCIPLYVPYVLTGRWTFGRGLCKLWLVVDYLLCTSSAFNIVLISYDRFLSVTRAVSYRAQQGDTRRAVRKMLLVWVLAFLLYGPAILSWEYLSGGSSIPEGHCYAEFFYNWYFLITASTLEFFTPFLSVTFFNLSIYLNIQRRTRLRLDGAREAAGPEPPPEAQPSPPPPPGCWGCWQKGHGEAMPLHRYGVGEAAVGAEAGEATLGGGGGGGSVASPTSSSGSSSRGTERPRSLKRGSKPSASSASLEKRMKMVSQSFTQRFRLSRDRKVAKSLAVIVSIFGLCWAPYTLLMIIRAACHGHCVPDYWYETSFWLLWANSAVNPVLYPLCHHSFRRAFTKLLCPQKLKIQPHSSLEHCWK

[20] = target: 5-hydroxytryptamine receptor 2A (Homo sapiens) (UniProt P28223)
5-hydroxytryptamine receptor 2A (Homo sapiens), sequence (P28223 whole entry): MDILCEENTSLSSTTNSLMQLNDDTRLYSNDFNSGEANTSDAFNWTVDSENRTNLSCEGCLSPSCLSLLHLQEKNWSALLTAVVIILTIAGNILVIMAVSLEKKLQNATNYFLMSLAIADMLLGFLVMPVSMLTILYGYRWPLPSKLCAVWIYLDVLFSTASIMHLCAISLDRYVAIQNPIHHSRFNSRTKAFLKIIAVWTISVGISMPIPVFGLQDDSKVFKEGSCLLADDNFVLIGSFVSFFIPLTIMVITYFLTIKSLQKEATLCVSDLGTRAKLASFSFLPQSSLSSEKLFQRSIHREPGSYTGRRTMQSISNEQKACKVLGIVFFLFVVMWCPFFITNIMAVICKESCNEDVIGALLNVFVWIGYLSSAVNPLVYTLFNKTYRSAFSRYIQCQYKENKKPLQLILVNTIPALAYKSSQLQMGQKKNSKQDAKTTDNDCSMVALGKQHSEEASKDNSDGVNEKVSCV

[21] = target: Sigma non-opioid intracellular receptor 1 (Homo sapiens) (UniProt Q99720)
Sigma non-opioid intracellular receptor 1 (Homo sapiens), sequence (Q99720 whole entry): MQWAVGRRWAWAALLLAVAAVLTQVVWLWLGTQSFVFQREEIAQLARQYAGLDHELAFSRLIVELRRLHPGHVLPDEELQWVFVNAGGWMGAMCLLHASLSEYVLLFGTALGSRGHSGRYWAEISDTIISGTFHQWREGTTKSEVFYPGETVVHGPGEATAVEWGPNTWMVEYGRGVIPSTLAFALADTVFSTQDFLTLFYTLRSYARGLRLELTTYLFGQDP

Structure (SMILES)	inhibition [1] [%]	inhibition [2] [%]	inhibition [3] [%]	inhibition [4] [%]	inhibition [5] [%]	inhibition [6] [%]	inhibition [7] [%]	inhibition [8] [%]	inhibition [9] [%]	inhibition [10] [%]	inhibition [11] [%]	inhibition [12] [%]	inhibition [13] [%]	inhibition [14] [%]	inhibition [15] [%]	inhibition [17] [%]	inhibition [18] [%]	inhibition [19] [%]	inhibition [20] [%]	inhibition [21] [%]	other results
Brc1c(NC2=NCCN2)ccc2nccnc12	34	103	-1.17	12.5	34.9	2.56	7.31	49.5	-2.59	69.9	1.24	66.9									
Clc1cccc(Cl)c1NC1=NCCN1	69	103	-4.25			2.9	13.1	29.5		77.2	-4.61	66.3	9.4	20.1							
COc1ccc2cc(S(=O)(=O)N[C@H](CC(=O)N[C@H](Cc3ccc(CN4[C@H](C)CCC[C@@H]4C)cc3)C(=O)N(C)C(C)C)c3ccc4c(c3)OCO4)ccc2c1	3.26	39.4		2.14		9.34	31.1		4.73	-0.02	8.79	97.7		20.3	44.5	11.7	33.1	62.1	28.8	102	inhibition [16]: 14.5%
COc1ccc2[nH]cc(CCNC(C)=O)c2c1	-4.46	8.96	-1.29	32.8	6.12	-3.64	12.5	17.3		-7.65	-3.9	22.1				13.1		-7.94		29.1	
Cc1cc([C@@H](C)Nc2cccc(-c3cc(C)c(C(=O)N[C@@H](C)C(=O)O)c(C)c3)c2)ccc1Cl	11.3			7.32	5.13		12.1		-2.64	2.27	35.9		5.92	11.6	21.2	14	2.32	10	5.15	20	inhibition [16]: -4.86%
CC(C)(C(=O)O)c1ccc(C(O)CCCN2CCC(C(O)(c3ccccc3)c3ccccc3)CC2)cc1 (stereo unspecified)		-4.3	-5.98	65.8	18.3	-8.03	8.43	39.8	-8.41	4.24		39.2	-8.04			28.9		-3.95		35.9	
O=C(O)C1CN(Cc2ccc(OCc3ccc(Cl)c(Cl)c3)cc2)C1	-0.54	29.7			-5.98	-3.72			5.45	-9.54			-4	23.4	2.35		86	-4.42	55.1	76.9	inhibition [16]: -5.25%
CNC[C@H](O)c1ccc(O)c(O)c1	6.21	49.1	34.2	15.9	-3.14	-7.99	11.1	15.8		-8.3	6.63	12.3	-5.3	-0.93		10.9					
CCc1nn2c(C)cc(C)nc2c1Cc1ccc(-c2nnc(C3CCNCC3)o2)cc1	-9.75	42.9	12.5	-9.55	6.13	-1.79	16.6	14.8	14.4	5.87	-1.19	80.3	12.6	3.02			9.84	-8.3	-2.43	52.4	
COc1cccc(-c2c(C)n(Cc3c(F)cccc3C(F)(F)F)c(=O)n(C[C@H](NCCCC(=O)O)c3ccccc3)c2=O)c1F	7.84			30.2	0.96		15.5		-1.04	34.2	7.27		11.7	35.8	26.2	-9.59	9.07		-2.02	2.12	inhibition [16]: -7.5%
CCC[C@H](Oc1cc(C)c(-n2cc(C(F)(F)F)cn2)c(C)c1)c1ccc(C(=O)NCCC(=O)O)cc1	8.94			8.21	11.7		12.2		-2.41	-2.87	27	2.23	44	8.62	28	20.2	7.56	11.1	4.78	1.84	inhibition [16]: -0.42%
CCCn1c(=O)c2nc(C34CC5CC(CC3C5)C4)[nH]c2n(CCC)c1=O		10	4.88		23.9	6.77	19.3	23.4	-4.94	5.98	11.3	39.6	14.2				8.71	-9.29	-7.63	32.7	
NC(=O)[C@@H]1CCCN1C(=O)[C@H](Cc1c[nH]cn1)NC(=O)[C@@H]1CCC(=O)N1	-7.07	12.4		-4.39	0.19	8.04	7.27		10.6	-8.14	1.37	35	-5.34	5.27	-3.59	-1.35	9.67	10.9	23.5	34.1	inhibition [16]: 0.84%
